Experimental data as given in PMC8658998, “Identification of Novel Antistaphylococcal Hit Compounds Targeting Sortase A” (Molecules, 2021).
Where two headings read alike, the source gives them in different places.

Target: T1, sortase A (Staphylococcus aureus, UniProt Q2FV99)
T1 construct: gene srtA
Test: SensoLyte […] Sortase A FRET substrate cleavage assay (5-FAM/QXL)
Type: biochemical

T1 sequence (Q2FV99 whole entry): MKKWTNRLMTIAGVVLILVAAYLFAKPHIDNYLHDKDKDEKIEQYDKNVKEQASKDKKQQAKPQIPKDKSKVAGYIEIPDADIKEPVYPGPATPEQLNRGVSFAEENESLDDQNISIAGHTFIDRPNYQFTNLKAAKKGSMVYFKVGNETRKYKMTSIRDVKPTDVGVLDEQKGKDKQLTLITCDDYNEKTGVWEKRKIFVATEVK

| SMILES | IC50 (read-out: IC50) [µM] | IC50 [µM] |
| --- | --- | --- |
| CCN(CC)CCCNc1cc([N+](=O)[O-])ccc1-c1ncc2ccccc2n1 [compound 1, N,N-diethyl-N′-(5-nitro-2-(quinazolin-2-yl)phenyl)propane-1,3-diamine] | 160 |  |
| c1ccc2c(Nc3ccc4[nH]cnc4c3)c3ccccc3nc2c1 [compound 2, acridin-9-yl-(1H-benzoimidazol-5-yl)-amine] |  | 207 |
